From paper PMC11822212, “High-throughput screening identifies Aurora kinase B as a critical therapeutic target for Merkel cell carcinoma” (Nature Communications, 2025)
Values joined by “and” are separate entries in the source; they are usually repeats but may differ in a detail not shown here. Equal entries are not always repeated. Structures can show the parent of a compound that is named as a salt. Where two headings read alike, the source gives them in different places.

Columns and labels:
MCC13 cells (VN-MCC) = test: qHTS cell viability (CellTiter-Glo, 72 h; primary and follow-up small molecule screen); assay type: cell-based, human
MCC26 cells (VN-MCC) = test: as above; assay type: cell-based, human
UISO cells (VN-MCC) = test: as above; assay type: cell-based, human
WAGA cells (VP-MCC) = test: as above; assay type: cell-based, human
MKL-1 cells (VP-MCC) = test: as above; assay type: cell-based, human
MKL-2 cells (VP-MCC) = test: as above; assay type: cell-based, human
HACAT cells = test: qHTS cell viability (CellTiter-Glo, 72 h; primary screen), control cell line; assay type: cell-based, human
HEK293T cells = test: as above; assay type: cell-based, human
NIH-3T3 cells = test: as above; assay type: cell-based, mouse
CRL-7250 cells = test: as above; assay type: cell-based
[1] = system: MCC cell lines (WAGA, MKL-1, MKL-2, MCC13, MCC26, UISO); test: qHTS cell viability, all six MCC cell lines as a group (mean AUC, MCC.avg); assay type: cell-based, human
[2] = system: VP-MCC cell lines (WAGA, MKL-1, MKL-2); test: qHTS cell viability, VP-MCC cell lines as a group (mean AUC, VP.MCC.avg); assay type: cell-based, human
[3] = system: VN-MCC cell lines (MCC13, MCC26, UISO); test: qHTS cell viability, VN-MCC cell lines as a group (mean AUC, VN.MCC.avg); assay type: cell-based, human
[4] = system: control cell lines (HACAT, HEK293T, CRL-7250, NIH-3T3); test: qHTS cell viability, control cell lines as a group (mean AUC, Control.avg); assay type: cell-based
[5] = system: six MCC cell lines and four control cell lines; test: qHTS cell viability, all 10 cell lines screened; assay type: cell-based
[6] = NPC library, qHTS dose-response AUC, MCC13
[7] = NPC library, qHTS dose-response AUC, MCC26
[8] = NPC library, qHTS dose-response AUC, UISO
[9] = NPC library, qHTS dose-response AUC, WAGA
[10] = NPC library, qHTS dose-response AUC, MKL1
[11] = NPC library, qHTS dose-response AUC, MKL2
[12] = NPC library, qHTS dose-response AUC, HACAT control
[13] = NPC library, qHTS dose-response AUC, HEK293T control
[14] = NPC library, qHTS dose-response AUC, NIH3T3 control
[15] = NPC library, qHTS dose-response AUC, CRL7250 control
[16] = NPC library, mean AUC of six MCC cell lines
[17] = NPC library, mean AUC of VP-MCC cell lines
[18] = NPC library, therapeutic window: Control avg AUC minus VP-MCC avg AUC
[19] = NPC library, mean AUC of VN-MCC cell lines
[20] = NPC library, therapeutic window: Control avg AUC minus VN-MCC avg AUC
[21] = NPC library, mean AUC of control cell lines
[22] = NPC library, therapeutic window: Control avg AUC minus MCC avg AUC
[23] = MIPE library, 11-point DRC, sheet S2E
[24] = MIPE library, 11-point DRC, control cell line, sheet S2E

Compound Cc1ccsc1C(=CCCN1CCC[C@@H](C(=O)O)C1)c1sccc1C [Tiagabine hydrochloride] has an MCC13_AUC (MCC13 cells (VN-MCC); [6]) of 504.961, an MCC26_AUC (MCC26 cells (VN-MCC); [7]) of 535.626 and a UISO_AUC (UISO cells (VN-MCC); [8]) of 537.732. It also gave a WAGA_AUC (WAGA cells (VP-MCC); [9]) of 356.213, an MKL1_AUC (MKL-1 cells (VP-MCC); [10]) of 342.483 and an MKL2_AUC (MKL-2 cells (VP-MCC); [11]) of 263.998. For the same compound, the HACAT_AUC (HACAT cells; [12]) was 471.067, the HEK293T_AUC (HEK293T cells; [13]) was 447.539 and the NIH3T3_AUC (NIH-3T3 cells; [14]) was 484.889. It also gave a CRL7250_AUC (CRL-7250 cells; [15]) of 426.76, an MCC_Avg_AUC [1, 16] of 423.502 and a VP-MCC_Avg_AUC [2, 17] of 320.898. The Control-VP-MCC [2, 18] was 136.666, the VN-MCC_Avg_AUC [3, 19] was 526.106 and the Control-VN-MCC [3, 20] was -68.5423. For the same compound, the Control_Avg_AUC [4, 21] was 457.564 and the Control-MCC [5, 22] was 34.0617.

COc1ccc2c3c1O[C@H]1[C@@H](O)C=C[C@H]4[C@@H](C2)N(C)CC[C@@]341 [Codeine hydrochloride] was tested, and the MCC13_AUC (MCC13 cells (VN-MCC)) was 404.155, the MCC26_AUC (MCC26 cells (VN-MCC)) was 404.512 and the UISO_AUC (UISO cells (VN-MCC)) was 365.394. The WAGA_AUC (WAGA cells (VP-MCC)) was 360.01, the MKL1_AUC (MKL-1 cells (VP-MCC)) was 362.385 and the MKL2_AUC (MKL-2 cells (VP-MCC)) was 316.851. For the same compound, the HACAT_AUC (HACAT cells) was 474.439, the HEK293T_AUC (HEK293T cells) was 441.34 and the NIH3T3_AUC (NIH-3T3 cells) was 465.288 and 465.287. For the same compound, the CRL7250_AUC (CRL-7250 cells) was 458.141, the MCC_Avg_AUC [1] was 368.884 and the Control-VP-MCC [2] was 113.387. For the same compound, the VP-MCC_Avg_AUC [2] was 346.415, the Control-VN-MCC [3] was 68.4482 and the VN-MCC_Avg_AUC [3] was 391.354. The Control_Avg_AUC [4] was 459.802 and the Control-MCC [5] was 90.9174.

O=C(CCc1ccc(O)cc1)c1c(O)cc(O)cc1O [Phloretin] was tested, and the MCC13_AUC (MCC13 cells (VN-MCC); [23]) was 472.315, the MCC13_AUC (MCC13 cells (VN-MCC); area under the dose-response curve, MCC13 cells, AUC<450 = reduced viability) was 472.315 and the “Area under the dose-response curve (AUC) MCC13 Replicate 1” value (MCC13 cells (VN-MCC); follow-up screen, MCC13, replicate 1) was 534.6. The “Area under the dose-response curve (AUC) MCC13 Replicate 2” value (MCC13 cells (VN-MCC); follow-up screen, MCC13, replicate 2) was 495.7, the “Area under the dose-response curve (AUC) MCC13 Replicate 3” value (MCC13 cells (VN-MCC); follow-up screen, MCC13, replicate 3) was 492.0 and the MCC26_AUC (MCC26 cells (VN-MCC); [23]) was 472.357. The MCC26_AUC (MCC26 cells (VN-MCC); area under the dose-response curve, MCC26 cells, AUC<450 = reduced viability) was 472.357, the “Area under the dose-response curve (AUC) MCC26 Replicate 1” value (MCC26 cells (VN-MCC); follow-up screen, MCC26, replicate 1) was 472.4 and the “Area under the dose-response curve (AUC) MCC26 Replicate 2” value (MCC26 cells (VN-MCC); follow-up screen, MCC26, replicate 2) was 446.6. The “Area under the dose-response curve (AUC) MCC26 Replicate 3” value (MCC26 cells (VN-MCC); follow-up screen, MCC26, replicate 3) was 497.7, the UISO_AUC (UISO cells (VN-MCC); [23]) was 485.008 and the UISO_AUC (UISO cells (VN-MCC); area under the dose-response curve, UISO cells, AUC<450 = reduced viability) was 485.008. For the same compound, the “Area under the dose-response curve (AUC) UISO Replicate 1” value (UISO cells (VN-MCC); follow-up screen, UISO, replicate 1) was 542.5, the “Area under the dose-response curve (AUC) UISO Replicate 2” value (UISO cells (VN-MCC); follow-up screen, UISO, replicate 2) was 515.8 and the “Area under the dose-response curve (AUC) UISO Replicate 3” value (UISO cells (VN-MCC); follow-up screen, UISO, replicate 3) was 481.4. For the same compound, the WAGA_AUC (WAGA cells (VP-MCC); [23]) was 402.295, the WAGA_AUC (WAGA cells (VP-MCC); area under the dose-response curve, WAGA cells, AUC<450 = reduced viability) was 402.295 and the “Area under the dose-response curve (AUC) WAGA Replicate 1” value (WAGA cells (VP-MCC); follow-up screen, WAGA, replicate 1) was 571.8. For the same compound, the “Area under the dose-response curve (AUC) WAGA Replicate 2” value (WAGA cells (VP-MCC); follow-up screen, WAGA, replicate 2) was 490.2, the “Area under the dose-response curve (AUC) WAGA Replicate 3” value (WAGA cells (VP-MCC); follow-up screen, WAGA, replicate 3) was 485.7 and the MKL1_AUC (MKL-1 cells (VP-MCC); [23]) was 433.632. For the same compound, the MKL1_AUC (MKL-1 cells (VP-MCC); area under the dose-response curve, MKL-1 cells, AUC<450 = reduced viability) was 433.632, the “Area under the dose-response curve (AUC) MKL-1 Replicate 1” value (MKL-1 cells (VP-MCC); follow-up screen, MKL-1, replicate 1) was 526.8 and the “Area under the dose-response curve (AUC) MKL-1 Replicate 2” value (MKL-1 cells (VP-MCC); follow-up screen, MKL-1, replicate 2) was 492.2. The “Area under the dose-response curve (AUC) MKL-1 Replicate 3” value (MKL-1 cells (VP-MCC); follow-up screen, MKL-1, replicate 3) was 497.0, the MKL2_AUC (MKL-2 cells (VP-MCC); [23]) was 410.273 and the MKL2_AUC (MKL-2 cells (VP-MCC); area under the dose-response curve, MKL-2 cells, AUC<450 = reduced viability) was 410.273. For the same compound, the “Area under the dose-response curve (AUC) MKL-2 Replicate 1” value (MKL-2 cells (VP-MCC); follow-up screen, MKL-2, replicate 1) was 493.4, the “Area under the dose-response curve (AUC) MKL-2 Replicate 2” value (MKL-2 cells (VP-MCC); follow-up screen, MKL-2, replicate 2) was 509.3 and the “Area under the dose-response curve (AUC) MKL-2 Replicate 3” value (MKL-2 cells (VP-MCC); follow-up screen, MKL-2, replicate 3) was 493.0. The HACAT_AUC (HACAT cells; [24]) was 476.785, the HACAT_AUC (HACAT cells; area under the dose-response curve, HACAT control cells, AUC<450 = reduced viability) was 476.785 and the HEK293T_AUC (HEK293T cells; [24]) was 470.007. For the same compound, the HEK293T_AUC (HEK293T cells; area under the dose-response curve, HEK293T control cells, AUC<450 = reduced viability) was 470.007, the NIH3T3_AUC (NIH-3T3 cells; [24]) was 475.685 and the NIH3T3_AUC (NIH-3T3 cells; area under the dose-response curve, NIH3T3 control cells, AUC<450 = reduced viability) was 475.685. For the same compound, the CRL7250_AUC (CRL-7250 cells; [24]) was 456.981, the CRL7250_AUC (CRL-7250 cells; area under the dose-response curve, CRL7250 control cells, AUC<450 = reduced viability) was 456.981 and the MCC_Avg_AUC ([1]; MIPE library, mean AUC of six MCC cell lines, sheet S2E) was 445.98. It also gave a Control-VP-MCC ([2]; MIPE library, Control AUC minus VP-MCC AUC (therapeutic window), sheet S2E) of 54.4642, a VP-MCC_Avg_AUC ([2]; MIPE library, mean AUC of VP-MCC cell lines, sheet S2E) of 415.4 and a Control-VN-MCC ([3]; MIPE library, Control AUC minus VN-MCC AUC (therapeutic window), sheet S2E) of -6.696. It also gave a VN-MCC_Avg_AUC ([3]; MIPE library, mean AUC of VN-MCC cell lines, sheet S2E) of 476.56, a Control_Avg_AUC ([4]; MIPE library, mean AUC of control cell lines, sheet S2E) of 469.864 and a Control-MCC ([5]; MIPE library, Control AUC minus MCC AUC (therapeutic window), sheet S2E) of 23.8842.

Compound CNS(=O)(=O)CCc1ccc2[nH]cc(C3CCN(C)CC3)c2c1 [Naratriptan hydrochloride] has an MCC13_AUC (MCC13 cells (VN-MCC); [6]) of 448.681, an MCC26_AUC (MCC26 cells (VN-MCC); [7]) of 402.936 and a UISO_AUC (UISO cells (VN-MCC); [8]) of 436.144. It also gave a WAGA_AUC (WAGA cells (VP-MCC); [9]) of 412.133, an MKL1_AUC (MKL-1 cells (VP-MCC); [10]) of 385.118 and an MKL2_AUC (MKL-2 cells (VP-MCC); [11]) of 428.785. It also gave an HACAT_AUC (HACAT cells; [12]) of 491.601, an HEK293T_AUC (HEK293T cells; [13]) of 455.258 and an NIH3T3_AUC (NIH-3T3 cells; [14]) of 449.036. It also gave a CRL7250_AUC (CRL-7250 cells; [15]) of 454.782, an MCC_Avg_AUC [1, 16] of 418.966 and a VP-MCC_Avg_AUC [2, 17] of 408.679. It also gave a Control-VP-MCC [2, 18] of 53.9902, a VN-MCC_Avg_AUC [3, 19] of 429.254 and a Control-VN-MCC [3, 20] of 33.4153. The Control_Avg_AUC [4, 21] was 462.669 and the Control-MCC [5, 22] was 43.7027.
